Data taken from patent publication US20240246932A1 (Merck Sharp & Dohme LLC, priority 2021, published 2024).

Biological target: human NaV 1.8 channels stably expressed in HEK 293 cells (Homo sapiens (Human), UniProt Q9Y5Y9)
Test: Nav1.8 Qube automated patch-clamp assay
Type: cell-based
Settings: human NaV1.8 in HEK 293 cells, whole-cell voltage clamp, room temperature; read-out: IC50 values (nM) for Examples in the Nav1.8 Qube Assay
Experimental: Compounds were tested on human NaV 1.8 and NaV1.5 channels stably expressed in human embryo kidney (HEK) 293 cells. Sodium current measurements on Qube® were conducted as follows: automated 384-well patch-clamp assays on the Qube® platform (Sophion Biosciences) were used to measure the inhibition of sodium flow through human NaV1.8 and NaV1.5 channels. Whole-cell voltage-clamp recordings were performed in QChips® (Sophion Biosciences) at room temperature. NaV1.8 current measurements on Qube® were obtained as follows: NaV1.8 currents were elicited with a 10 second 1 Hertz (Hz) pulse train from a holding potential of −90 millivolts (mV), delivered to the cells once per minute in the control condition (DMSO only) and after compound addition. The 1 hertz pulse train stimulation consisted of ten test pulses to 10 millivolt (mV) for 20 milliseconds (ms), each of which was followed by a 980 millisecond repolarization to −67 millivolts. At the end of the 10 second pulse train stimulation, a 5 second hyperpolarization step to −100 millivolt (mV) was used to recover NaV1.8 from fast inactivation. The peak currents elicited by the 1st and 10th test pulses were used to determine IC50 values for resting inhibition and inactivated state inhibition. NaV1.5 current measurements on Qube® were obtained as follows: NaV1.5 currents were elicited with a 20 second 3 Hertz pulse train in the control condition (DMSO only) and after compound addition. The pulse train consisted of sixty 20 millisecond test pulses to 0 millivolt from a holding potential of −80 millivolt (mV). The average peak currents elicited by the last 3 test pulses were used to determine IC50 values for NaV1.5 inhibition.
The following buffers were used for the Qube® recordings: External buffer for NaV1.8 Qube® recording: 150 NaCl, 2 CaCl2, 5 KCl, 1 MgCl2, 10 HEPES, 12 Dextrose; External buffer for Qube® NaV1.5 recording: 120 N-Methyl-D-Glucamine, 40 NaCl, 1 KCl, 2.7 CaCl2), 5 HEPES, 0.5 MgCl2; and Internal buffer for Qube® recording: 120 CsF, 30 CsCl, 10 EGTA, 5 HEPES, 5 NaF, 2 MgCl2.
For all Qube® experiments offline analysis was used to determine percent inhibition as a function of drug concentration. IC50 values were determined by fitting to the Hill equation.

human NaV 1.8 channels stably expressed in HEK 293 cells, sequence (Q9Y5Y9 whole entry): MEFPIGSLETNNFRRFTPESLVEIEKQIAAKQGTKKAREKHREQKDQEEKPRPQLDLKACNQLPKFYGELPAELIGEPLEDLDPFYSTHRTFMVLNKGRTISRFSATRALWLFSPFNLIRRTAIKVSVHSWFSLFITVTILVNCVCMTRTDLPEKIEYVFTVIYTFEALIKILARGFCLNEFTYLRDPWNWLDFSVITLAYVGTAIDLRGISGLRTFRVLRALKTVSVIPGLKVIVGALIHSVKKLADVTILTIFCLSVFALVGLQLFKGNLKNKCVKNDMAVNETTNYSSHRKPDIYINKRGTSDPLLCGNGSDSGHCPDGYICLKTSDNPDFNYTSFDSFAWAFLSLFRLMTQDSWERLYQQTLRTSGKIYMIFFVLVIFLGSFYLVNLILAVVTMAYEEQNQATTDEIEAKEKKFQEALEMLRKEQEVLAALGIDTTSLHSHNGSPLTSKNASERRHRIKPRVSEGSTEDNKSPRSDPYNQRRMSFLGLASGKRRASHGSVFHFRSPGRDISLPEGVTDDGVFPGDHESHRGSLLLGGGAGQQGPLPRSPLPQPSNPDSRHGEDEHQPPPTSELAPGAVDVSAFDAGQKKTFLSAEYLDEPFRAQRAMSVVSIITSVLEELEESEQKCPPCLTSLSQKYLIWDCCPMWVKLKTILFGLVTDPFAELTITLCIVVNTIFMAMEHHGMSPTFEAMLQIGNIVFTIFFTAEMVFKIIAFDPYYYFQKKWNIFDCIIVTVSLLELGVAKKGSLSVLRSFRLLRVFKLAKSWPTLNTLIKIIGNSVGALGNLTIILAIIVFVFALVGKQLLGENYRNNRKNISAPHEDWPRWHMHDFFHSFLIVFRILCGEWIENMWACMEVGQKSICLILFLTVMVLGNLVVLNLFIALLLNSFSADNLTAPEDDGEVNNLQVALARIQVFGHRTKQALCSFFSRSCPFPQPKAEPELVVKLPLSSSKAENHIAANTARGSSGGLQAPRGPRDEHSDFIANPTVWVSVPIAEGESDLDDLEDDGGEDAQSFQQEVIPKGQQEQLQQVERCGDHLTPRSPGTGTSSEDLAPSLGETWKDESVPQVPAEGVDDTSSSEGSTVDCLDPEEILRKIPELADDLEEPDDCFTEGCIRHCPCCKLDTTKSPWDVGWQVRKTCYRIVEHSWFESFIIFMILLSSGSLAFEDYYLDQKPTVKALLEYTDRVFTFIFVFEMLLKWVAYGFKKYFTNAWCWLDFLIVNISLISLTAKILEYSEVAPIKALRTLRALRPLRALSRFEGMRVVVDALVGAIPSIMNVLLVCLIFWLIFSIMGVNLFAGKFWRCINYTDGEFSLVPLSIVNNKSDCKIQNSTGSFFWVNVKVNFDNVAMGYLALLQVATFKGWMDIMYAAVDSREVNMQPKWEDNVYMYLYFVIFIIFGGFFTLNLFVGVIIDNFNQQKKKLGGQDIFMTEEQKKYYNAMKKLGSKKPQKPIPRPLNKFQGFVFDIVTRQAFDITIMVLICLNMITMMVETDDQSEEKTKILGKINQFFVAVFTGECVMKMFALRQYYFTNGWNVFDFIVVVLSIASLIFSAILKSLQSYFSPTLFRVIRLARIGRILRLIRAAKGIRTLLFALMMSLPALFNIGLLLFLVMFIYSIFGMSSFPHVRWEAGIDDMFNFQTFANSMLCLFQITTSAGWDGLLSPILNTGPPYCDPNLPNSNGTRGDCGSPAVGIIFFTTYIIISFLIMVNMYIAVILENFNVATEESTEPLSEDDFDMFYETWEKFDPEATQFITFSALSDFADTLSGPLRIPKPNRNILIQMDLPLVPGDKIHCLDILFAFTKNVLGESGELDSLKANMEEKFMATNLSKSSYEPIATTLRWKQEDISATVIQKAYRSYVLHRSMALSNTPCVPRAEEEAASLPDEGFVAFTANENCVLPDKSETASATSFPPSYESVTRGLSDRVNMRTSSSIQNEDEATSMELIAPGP

IC50 [nM]	Structure (SMILES)
3.5	C[C@@H]1C(=O)NCCN1C(=O)NC(c1ccc(OC(F)(F)F)c(Cl)c1)c1coc(C(F)(F)F)n1 (single isomer, unassigned) [Example 64B, (2R)-N-((S or R)-(3-chloro-4-(trifluoro-methoxy)phenyl)(2-(trifluoromethyl)oxazol-4-yl)methyl)-2-methyl-3-oxopiperazine-1-carboxamide]
30.9	C[C@@H]1C(=O)NCCN1C(=O)NC(c1ccc(OCC(F)(F)F)nc1)c1ccc(F)c(Cl)c1F (single isomer, unassigned) [Example 1B]
4.46	O=C1CN(C(=O)NC(c2ccc(OCC(F)(F)F)nc2)c2ccc(F)c(Cl)c2F)CCN1 (single isomer, unassigned) [Example 8A, N-((R or S)-(3-chloro-2,4-difluorophenyl)(6-(2,2,2-trifluoroethoxy)pyridin-3-yl)methyl)-3-oxopiperazine-1-carboxamide]
1.89	C[C@@H]1C(=O)NCCN1C(=O)NC(c1ccc(F)c(Cl)c1)c1cnc(C(F)(F)F)c(Cl)c1 (single isomer, unassigned) [Example 26A, (2R)-N-((R or S)-(3-chloro-4-fluoro-phenyl)(5-chloro-6-(trifluoromethyl)pyridin-3-yl)methyl)-2-methyl-3-oxopiperazine-1-carboxamide]
9.42	C[C@@H]1C(=O)NCCN1C(=O)NC(c1cnc(OCC(F)(F)F)s1)c1ccc(F)c(Cl)c1F (single isomer, unassigned) [Example 13B, (2R)-N-((S or R)-(3-chloro-2,4-difluoro-phenyl)(2-(2,2,2-trifluoroethoxy)thiazol-5-yl)methyl)-2-methyl-3-oxopiperazine-1-carboxamide]
96.8	C[C@@H]1C(=O)NCCN1C(=O)NC(c1ccc(C(F)F)nc1)c1ccc(F)c(Cl)c1F (single isomer, unassigned) [Example 32A, (2R)-N-((R or S)-(3-chloro-2,4-difluoro-phenyl)(6-(difluoro-methyl)pyridin-3-yl)methyl)-2-methyl-3-oxopiperazine-1-carboxamide]
2630	CC(C)C1C(=O)NCCN1C(=O)NC(c1ccc(C(F)(F)F)nc1)c1ccc(F)c(Cl)c1F (single isomer, unassigned) [Example 39A, N-((R or S)-(3-chloro-2,4-difluorophenyl)(6-(trifluoromethyl)pyridin-3-yl)methyl)-(R or S)-2-isopropyl-3-oxo-piperazine-1-carboxamide]
3.33	C[C@@H]1C(=O)NCCN1C(=O)NC(c1ccc(OC2CC2)c(F)c1)c1ccc(F)c(C(F)(F)F)n1 (single isomer, unassigned) [Example 59A, (2R)-N-((R or S)-(4-cyclopropoxy-3-fluorophenyl)(5-fluoro-6-(trifluoromethyl)pyridin-2-yl)methyl)-2-methyl-3-oxopiperazine-1-carboxamide]
1.18	C[C@@H]1C(=O)NCCN1C(=O)NC(c1cnc(OCC(F)(F)F)c(F)c1)c1ccc(F)c(Cl)c1F (single isomer, unassigned) [Example 10A, (2R)-N-((R or S)-(3-chloro-2,4-difluorophenyl)(5-fluoro-6-(2,2,2-trifluoroethoxy)pyridin-3-yl)methyl)-2-methyl-3-oxopiperazine-1-carboxamide]
42	C[C@@H]1C(=O)NCCN1C(=O)NC(c1ccc(F)c(Cl)c1)c1cnn(CC(F)(F)F)c1 (single isomer, unassigned) [Example 67B, (2R)-N-((S or R)-(3-chloro-4-fluorophenyl)(1-(2,2,2-trifluoroethyl)-1H-pyrazol-4-yl)methyl)-2-methyl-3-oxopiperazine-1-carboxamide]
3.83	C[C@@H]1C(=O)NCCN1C(=O)NC(c1ccc(OC(F)(F)F)c(F)c1)c1ccc(C#N)c(C(F)(F)F)n1 (single isomer, unassigned) [Example 61B]
2.22	O=C1NCCN(C(=O)NC(c2ccc(C(F)(F)F)nc2)c2ccc(F)c(Cl)c2F)C1C1CC1 (single isomer, unassigned) [Example 38B, N—((R or S)-(3-chloro-2,4-difluorophenyl)(6-(trifluoromethyl)pyridin-3-yl)methyl)-(S)-2-cyclopropyl-3-oxopiperazine-1-carboxamide]
21.4	C[C@@H]1C(=O)NCCN1C(=O)NC(c1ccc(C(F)(F)F)nc1)c1ccc(Cl)c(Cl)c1F (single isomer, unassigned) [Example 29A, (2R)-N-((R or S)-(3,4-dichloro-2-fluoro-phenyl)(6-(trifluoro-methyl)pyridin-3-yl)methyl)-2-methyl-3-oxopiperazine-1-carboxamide]
20	C[C@@H]1C(=O)NCCN1C(=O)NC(c1ccc(OCC(F)(F)F)nc1)c1ccc(F)c(F)c1 (single isomer, unassigned) [Example 6A, (2R)-N-((R or S)-(3,4-difluorophenyl)(6-(2,2,2-trifluoro-ethoxy)pyridin-3-yl)methyl)-2-methyl-3-oxopiperazine-1-carboxamide]
71.1	C[C@@H]1C(=O)NCCN1C(=O)NC(c1cnc(OC(F)F)nc1)c1ccc(F)c(Cl)c1F (single isomer, unassigned) [Example 74A, (2R)-N-((R or S)-(3-chloro-2,4-difluoro-phenyl)(2-(difluoro-methoxy)pyrimidin-5-yl)methyl)-2-methyl-3-oxopiperazine-1-carboxamide]
501	C[C@@H]1C(=O)NCCN1C(=O)NC(c1cnc(OCC(F)(F)F)nc1)c1ccc(F)c(Cl)c1F (single isomer, unassigned) [Example 12B]
125	C[C@@H]1C(=O)NCCN1C(=O)NC(c1ccc(F)c(Cl)c1)c1ccn(C(F)F)n1 (single isomer, unassigned) [Example 66A]
2.19	C[C@@H]1C(=O)NCCN1C(=O)NC(c1ccc(F)c(C(F)(F)F)n1)c1ccc(F)c(Cl)c1F (single isomer, unassigned) [Example 60A, (2R)-N-((R or S)-(3-chloro-2,4-difluoro-phenyl)(5-fluoro-6-(trifluoromethyl)pyridin-2-yl)methyl)-2-methyl-3-oxopiperazine-1-carboxamide]
73.7	C[C@@H]1C(=O)NCCN1C(=O)NC(c1ccc(OCC(F)(F)F)nc1)c1ccc(F)c(C(F)(F)F)n1 (single isomer, unassigned) [Example 50A, (2R)-N-((R or S)-(5-fluoro-6-(trifluoro-methyl)pyridin-2-yl)(6-(2,2,2-trifluoro-ethoxy)pyridin-3-yl)methyl)-2-methyl-3-oxopiperazine-1-carboxamide]
3.9	C[C@@H]1C(=O)NCCN1C(=O)NC(c1ccc(OC(F)(F)F)nc1)c1ccc(F)c(Cl)c1F (single isomer, unassigned) [Example 4A, (2R)-N-((R or S)-(3-chloro-2,4-difluorophenyl)(6-(trifluoromethoxy)pyridin-3-yl)methyl)-2-methyl-3-oxopiperazine-1-carboxamide]
1.38	C[C@@H]1C(=O)NCCN1C(=O)NC(c1ccc(Cl)c(F)c1)c1ccc(F)c(C(F)(F)F)n1 (single isomer, unassigned) [Example 53B, (2R)-N-((S or R)-(4-chloro-3-fluoro-phenyl)(5-fluoro-6-(trifluoromethyl)pyridin-2-yl)methyl)-2-methyl-3-oxopiperazine-1-carboxamide]
6.79	C[C@@H]1C(=O)NCCN1C(=O)NC(c1ccc(OCC(F)(F)F)cc1)c1ccc(F)c(C(F)(F)F)n1 (single isomer, unassigned) [Example 57A, (2R)-N-((R or S)-(5-fluoro-6-(trifluoro-methyl)pyridin-2-yl)(4-(2,2,2-trifluoro-ethoxy)phenyl)methyl)-2-methyl-3-oxopiperazine-1-carboxamide]
8.05	C[C@@H]1C(=O)NCCN1C(=O)NC(c1cnn(-c2ccc(F)cc2)c1)c1ccc(F)c(Cl)c1F (single isomer, unassigned) [Example 65A, (2R)-N-((R or S)-(3-chloro-2,4-difluoro-phenyl)(1-(4-fluoro-phenyl)-1H-pyrazol-4-yl)methyl)-2-methyl-3-oxopiperazine-1-carboxamide]
154	C[C@@H]1C(=O)NCCN1C(=O)NC(c1ccc(F)c(Cl)c1)c1cc(C(F)(F)F)nn1C (single isomer, unassigned) [Example 86B, (2R)-N-((S or R)-(3-chloro-4-fluoro-phenyl)(1-methyl-3-(trifluoro-methyl)-1H-pyrazol-5-yl)methyl)-2-methyl-3-oxo-piperazine-1-carboxamide]
17.4	C[C@@H]1C(=O)NCCN1C(=O)NC(c1cnc(C(F)(F)F)c(Cl)c1)c1ccc(F)c(C(F)(F)F)n1 (single isomer, unassigned) [Example 82A]
